{"source": "patent US10722584B2", "about": "“Increasing the bioavailability of flavan-3-ols by polyphenols” (NESTEC S.A., priority 2012, dated 2020)", "set-up": "species or system human", "conditions": "in vivo", "excerpt": "Method: 12 healthy male (20-50 yrs) were enrolled in a randomized and double blind crossover design of four treatments with a minimum of 1 week wash-out period between each treatment was applied.\nIn the present invention, only 2 treatments are object of investigation: green tea extract (control) and green tea extract+hesperitin 7-glucoside (intervention).\nEach treatment was formulated to contain 1 g equivalent of Choladi green tea extract. Subjects in the intervention group received a mixture of 1 g of green tea extract and 100 mg of hesperitin-7-glucoside.\nAfter ingestion, plasma was collected over 24 h. Plasma EGCG analyses were performed by HPLC coupled with an electrochemical detection.\nEGCG bioavailability was calculated from plasma kinetics by measuring the Area Under its concentration-time Curve (AUC)."}
{"compound": "COc1ccc([C@@H]2CC(=O)c3c(O)cc(O[C@@H]4O[C@H](CO)[C@@H](O)[C@H](O)[C@H]4O)cc3O2)cc1O", "note": "[hesperitin 7-glucoside]", "values": [{"measurement": "absorption of EGCG when flavan-3-ols are co-administered", "result": "significantly enhanced"}]}
